{"source": "paper PMC10343355", "about": "“Finding the Right Solvent: A Novel Screening Protocol for Identifying Environmentally Friendly and Cost-Effective Options for Benzenesulfonamide” (Molecules, 2023)", "origin": "cited, not measured here", "design": "method as in Li et al.", "conditions": "ref Li et al., cited from earlier work", "note": "Like-named read-outs stand apart in the source and are kept apart here."}
{"smiles": "NS(=O)(=O)c1ccccc1", "note": "[BSA, Benzenesulfonamide]", "values": [{"measurement": "log(x1)exp", "setting": "Acetonitrile, 0.00 °C", "result": -1.46}, {"measurement": "log(x1)exp", "setting": "Acetonitrile, 6.00 °C", "result": -1.40}, {"measurement": "log(x1)exp", "setting": "Acetonitrile, 10.30 °C", "result": -1.35}, {"measurement": "log(x1)exp", "setting": "Acetonitrile, 15.80 °C", "result": -1.30}, {"measurement": "log(x1)exp", "setting": "Acetonitrile, 20.10 °C", "result": -1.25}, {"measurement": "log(x1)exp", "setting": "Acetonitrile, 25.70 °C", "result": -1.19}, {"measurement": "log(x1)exp", "setting": "Acetonitrile, 30.00 °C", "result": -1.14}, {"measurement": "log(x1)exp", "setting": "Acetonitrile, 35.00 °C", "result": -1.09}, {"measurement": "log(x1)exp", "setting": "Acetonitrile, 40.00 °C", "result": -1.03}, {"measurement": "log(x1)exp", "setting": "Acetonitrile, 44.50 °C", "result": -0.98}, {"measurement": "log(x1)exp", "setting": "Acetonitrile, 50.00 °C", "result": -0.93}, {"measurement": "log(x1)exp", "setting": "Cyclopentanone, 0.00 °C", "result": -0.86}, {"measurement": "log(x1)exp", "setting": "Cyclopentanone, 6.00 °C", "result": -0.84}, {"measurement": "log(x1)exp", "setting": "Cyclopentanone, 10.70 °C", "result": -0.82}, {"measurement": "log(x1)exp", "setting": "Cyclopentanone, 16.00 °C", "result": -0.80}, {"measurement": "log(x1)exp", "setting": "Cyclopentanone, 20.60 °C", "result": -0.78}, {"measurement": "log(x1)exp", "setting": "Cyclopentanone, 26.00 °C", "result": -0.75}, {"measurement": "log(x1)exp", "setting": "Cyclopentanone, 30.60 °C", "result": -0.73}, {"measurement": "log(x1)exp", "setting": "Cyclopentanone, 36.00 °C", "result": -0.70}, {"measurement": "log(x1)exp", "setting": "Cyclopentanone, 40.20 °C", "result": -0.68}, {"measurement": "log(x1)exp", "setting": "Dichloromethane, 0.00 °C", "result": -2.87}, {"measurement": "log(x1)exp", "setting": "Dichloromethane, 6.00 °C", "result": -2.76}, {"measurement": "log(x1)exp", "setting": "Dichloromethane, 10.30 °C", "result": -2.67}, {"measurement": "log(x1)exp", "setting": "Dichloromethane, 15.80 °C", "result": -2.56}, {"measurement": "log(x1)exp", "setting": "Dichloromethane, 20.10 °C", "result": -2.48}, {"measurement": "log(x1)exp", "setting": "Dichloromethane, 25.70 °C", "result": -2.37}, {"measurement": "log(x1)exp", "setting": "Dichloromethane, 30.00 °C", "result": -2.31}, {"measurement": "log(x1)exp", "setting": "Dichloromethane, 35.00 °C", "result": -2.22}, {"measurement": "log(x1)exp", "setting": "Dichloromethane, 39.00 °C", "result": -2.16}, {"measurement": "log(x1)exp", "setting": "Ethyl Acetate, 0.00 °C", "result": -1.49}, {"measurement": "log(x1)exp", "setting": "Ethyl Acetate, 6.00 °C", "result": -1.44}, {"measurement": "log(x1)exp", "setting": "Ethyl Acetate, 10.30 °C", "result": -1.41}, {"measurement": "log(x1)exp", "setting": "Ethyl Acetate, 15.80 °C", "result": -1.37}, {"measurement": "log(x1)exp", "setting": "Ethyl Acetate, 20.10 °C", "result": -1.33}, {"measurement": "log(x1)exp", "setting": "Ethyl Acetate, 25.70 °C", "result": -1.29}, {"measurement": "log(x1)exp", "setting": "Ethyl Acetate, 30.00 °C", "result": -1.25}, {"measurement": "log(x1)exp", "setting": "Ethyl Acetate, 35.00 °C", "result": -1.21}, {"measurement": "log(x1)exp", "setting": "Ethyl Acetate, 40.00 °C", "result": -1.17}, {"measurement": "log(x1)exp", "setting": "Ethyl Acetate, 44.50 °C", "result": -1.13}, {"measurement": "log(x1)exp", "setting": "Ethyl Acetate, 50.00 °C", "result": -1.09}, {"measurement": "log(x1)exp", "setting": "Ethyl Formate, 0.00 °C", "result": -1.74}, {"measurement": "log(x1)exp", "setting": "Ethyl Formate, 6.00 °C", "result": -1.69}, {"measurement": "log(x1)exp", "setting": "Ethyl Formate, 10.30 °C", "result": -1.64}, {"measurement": "log(x1)exp", "setting": "Ethyl Formate, 15.80 °C", "result": -1.59}, {"measurement": "log(x1)exp", "setting": "Ethyl Formate, 20.10 °C", "result": -1.54}, {"measurement": "log(x1)exp", "setting": "Ethyl Formate, 25.70 °C", "result": -1.48}, {"measurement": "log(x1)exp", "setting": "Ethyl Formate, 30.00 °C", "result": -1.44}, {"measurement": "log(x1)exp", "setting": "Ethyl Formate, 35.00 °C", "result": -1.38}, {"measurement": "log(x1)exp", "setting": "Ethyl Formate, 40.00 °C", "result": -1.33}, {"measurement": "log(x1)exp", "setting": "Ethyl Formate, 44.50 °C", "result": -1.28}, {"measurement": "log(x1)exp", "setting": "Ethyl Formate, 50.00 °C", "result": -1.22}, {"measurement": "log(x1)exp", "setting": "Isobutanol, 0.00 °C", "result": -2.41}, {"measurement": "log(x1)exp", "setting": "Isobutanol, 6.00 °C", "result": -2.35}, {"measurement": "log(x1)exp", "setting": "Isopentanol, 0.00 °C", "result": -2.38}, {"measurement": "log(x1)exp", "setting": "Isopentanol, 6.00 °C", "result": -2.31}, {"measurement": "log(x1)exp", "setting": "Isopentanol, 10.70 °C", "result": -2.25}, {"measurement": "log(x1)exp", "setting": "Isopentanol, 16.00 °C", "result": -2.17}, {"measurement": "log(x1)exp", "setting": "Isopentanol, 20.60 °C", "result": -2.09}, {"measurement": "log(x1)exp", "setting": "Isopentanol, 26.00 °C", "result": -2.00}, {"measurement": "log(x1)exp", "setting": "Isopentanol, 30.60 °C", "result": -1.92}, {"measurement": "log(x1)exp", "setting": "Isopentanol, 36.00 °C", "result": -1.83}, {"measurement": "log(x1)exp", "setting": "Isopentanol, 40.20 °C", "result": -1.76}, {"measurement": "log(x1)exp", "setting": "Isopentanol, 46.00 °C", "result": -1.68}, {"measurement": "log(x1)exp", "setting": "Isopentanol, 51.30 °C", "result": -1.60}, {"measurement": "log(x1)exp", "setting": "Methanol, 0.00 °C", "result": -1.53}, {"measurement": "log(x1)exp", "setting": "Methanol, 6.00 °C", "result": -1.49}, {"measurement": "log(x1)exp", "setting": "Methanol, 10.30 °C", "result": -1.45}, {"measurement": "log(x1)exp", "setting": "Methanol, 15.80 °C", "result": -1.39}, {"measurement": "log(x1)exp", "setting": "Methanol, 20.10 °C", "result": -1.34}, {"measurement": "log(x1)exp", "setting": "Methanol, 25.70 °C", "result": -1.27}, {"measurement": "log(x1)exp", "setting": "Methanol, 30.00 °C", "result": -1.21}, {"measurement": "log(x1)exp", "setting": "Methanol, 40.00 °C", "result": -1.09}, {"measurement": "log(x1)exp", "setting": "Methanol, 44.50 °C", "result": -1.03}, {"measurement": "log(x1)exp", "setting": "Methanol, 50.00 °C", "result": -0.97}, {"measurement": "log(x1)exp", "setting": "n-Butanol, 46.00 °C", "result": -1.56}, {"measurement": "log(x1)exp", "setting": "n-Butanol, 51.30 °C", "result": -1.49}, {"measurement": "log(x1)exp", "setting": "n-Pentanol, 36.00 °C", "result": -1.78}, {"measurement": "log(x1)exp", "setting": "n-Pentanol, 40.20 °C", "result": -1.73}, {"measurement": "log(x1)exp", "setting": "n-Pentanol, 46.00 °C", "result": -1.63}, {"measurement": "log(x1)exp", "setting": "n-Pentanol, 51.30 °C", "result": -1.56}, {"measurement": "log(x1)exp", "setting": "n-Propanol, 0.00 °C", "result": -2.09}, {"measurement": "log(x1)exp", "setting": "n-Propanol, 6.00 °C", "result": -2.04}, {"measurement": "log(x1)exp", "setting": "n-Propanol, 10.70 °C", "result": -1.99}, {"measurement": "log(x1)exp", "setting": "n-Propanol, 16.00 °C", "result": -1.91}, {"measurement": "log(x1)exp", "setting": "n-Propanol, 20.60 °C", "result": -1.84}, {"measurement": "log(x1)exp", "setting": "n-Propanol, 26.00 °C", "result": -1.76}, {"measurement": "log(x1)exp", "setting": "n-Propanol, 30.60 °C", "result": -1.68}, {"measurement": "log(x1)exp", "setting": "n-Propanol, 36.00 °C", "result": -1.60}, {"measurement": "log(x1)exp", "setting": "n-Propanol, 40.20 °C", "result": -1.53}, {"measurement": "log(x1)exp", "setting": "n-Propanol, 46.00 °C", "result": -1.44}, {"measurement": "log(x1)exp", "setting": "n-Propanol, 51.30 °C", "result": -1.37}, {"measurement": "log(x1)exp", "setting": "solvent Isobutanol, T 10.70 °C, mole fraction solubility", "result": -2.27}, {"measurement": "log(x1)exp", "setting": "solvent Isobutanol, T 16.00 °C, mole fraction solubility", "result": -2.18}, {"measurement": "log(x1)exp", "setting": "solvent Isobutanol, T 20.60 °C, mole fraction solubility", "result": -2.09}, {"measurement": "log(x1)exp", "setting": "solvent Isobutanol, T 26.00 °C, mole fraction solubility", "result": -2.00}, {"measurement": "log(x1)exp", "setting": "solvent Isobutanol, T 30.60 °C, mole fraction solubility", "result": -1.92}, {"measurement": "log(x1)exp", "setting": "solvent Isobutanol, T 36.00 °C, mole fraction solubility", "result": -1.83}, {"measurement": "log(x1)exp", "setting": "solvent Isobutanol, T 40.20 °C, mole fraction solubility", "result": -1.75}, {"measurement": "log(x1)exp", "setting": "solvent Isobutanol, T 46.00 °C, mole fraction solubility", "result": -1.67}, {"measurement": "log(x1)exp", "setting": "solvent Isobutanol, T 51.30 °C, mole fraction solubility", "result": -1.59}]}
